{
  "source": "PubChem BioAssay (NCI)",
  "assay_in_all_cases": "growth of human tumour cells (NCI), 48 h",
  "key": {"DLD-1 colon": {"tested_on": "DLD-1 colon"}, "DMS 114 small cell lung": {"tested_on": "DMS 114 small cell lung"}, "DMS 273 small cell lung": {"tested_on": "DMS 273 small cell lung"}, "KM20L2 colon": {"tested_on": "KM20L2 colon"}, "LXFL 529 NSCLC": {"tested_on": "LXFL 529 NSCLC"}, "M19-MEL melanoma": {"tested_on": "M19-MEL melanoma"}, "XF 498 CNS": {"tested_on": "XF 498 CNS"}, "SNB-78 CNS": {"tested_on": "SNB-78 CNS"}, "RXF-631 renal": {"tested_on": "RXF-631 renal"}},
  "note": "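Step 1: Grow cells in 96-well plates. Step 2: Expose to compound for 48 hours at 5 concentrations. Step 3: Interpolate endpoints linearly; if unreached, use highest concentration. Definition used: TGI = concentration required for complete inhibition of growth.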",
  "data": [
    {"molecule": "CCC12CCCNC1c1c(n(C)c3ccccc13)C(C(=O)OC)C2", "note": "(centres undefined)", "values": [
      {"measurement": "TGI", "setting": "DLD-1 colon", "value": "> 275", "unit": "µM"},
      {"measurement": "TGI", "setting": "DMS 114 small cell lung", "value": 152, "unit": "µM"},
      {"measurement": "TGI", "setting": "DMS 273 small cell lung", "value": 246, "unit": "µM"},
      {"measurement": "TGI", "setting": "KM20L2 colon", "value": 231, "unit": "µM"},
      {"measurement": "TGI", "setting": "LXFL 529 NSCLC", "value": "> 275", "unit": "µM"},
      {"measurement": "TGI", "setting": "M19-MEL melanoma", "value": 194, "unit": "µM"},
      {"measurement": "TGI", "setting": "XF 498 CNS", "value": 123, "unit": "µM"}
    ]},
    {"molecule": "c1cnc2c(c1)-n1cccc1C1(CCSC1)NN2", "note": "(centres undefined)", "values": [
      {"measurement": "TGI", "setting": "DLD-1 colon", "value": "> 100", "unit": "µM"},
      {"measurement": "TGI", "setting": "DMS 114 small cell lung", "value": "> 100", "unit": "µM"},
      {"measurement": "TGI", "setting": "DMS 273 small cell lung", "value": "> 100", "unit": "µM"},
      {"measurement": "TGI", "setting": "M19-MEL melanoma", "value": "> 100", "unit": "µM"},
      {"measurement": "TGI", "setting": "SNB-78 CNS", "value": "> 100", "unit": "µM"},
      {"measurement": "TGI", "setting": "XF 498 CNS", "value": "> 100", "unit": "µM"}
    ]},
    {"molecule": "Cc1ccc(NCC(=O)N2CC(=O)Nc3ccccc32)cc1", "values": [
      {"measurement": "TGI", "setting": "DLD-1 colon", "value": "> 100", "unit": "µM"},
      {"measurement": "TGI", "setting": "DMS 114 small cell lung", "value": "> 100", "unit": "µM"},
      {"measurement": "TGI", "setting": "DMS 273 small cell lung", "value": "> 100", "unit": "µM"},
      {"measurement": "TGI", "setting": "KM20L2 colon", "value": "> 100", "unit": "µM"},
      {"measurement": "TGI", "setting": "LXFL 529 NSCLC", "value": "> 100", "unit": "µM"},
      {"measurement": "TGI", "setting": "M19-MEL melanoma", "value": "> 100", "unit": "µM"},
      {"measurement": "TGI", "setting": "SNB-78 CNS", "value": "> 100", "unit": "µM"},
      {"measurement": "TGI", "setting": "XF 498 CNS", "value": "> 100", "unit": "µM"}
    ]},
    {"molecule": "CC(=O)OC1CC2(C)OC(Cc3ccccc32)O1", "note": "(centres undefined)", "values": [
      {"measurement": "TGI", "setting": "DLD-1 colon", "value": "> 100", "unit": "µM"},
      {"measurement": "TGI", "setting": "DMS 114 small cell lung", "value": "> 100", "unit": "µM"},
      {"measurement": "TGI", "setting": "DMS 273 small cell lung", "value": "> 100", "unit": "µM"},
      {"measurement": "TGI", "setting": "KM20L2 colon", "value": "> 100", "unit": "µM"},
      {"measurement": "TGI", "setting": "M19-MEL melanoma", "value": "> 100", "unit": "µM"},
      {"measurement": "TGI", "setting": "SNB-78 CNS", "value": "> 100", "unit": "µM"},
      {"measurement": "TGI", "setting": "XF 498 CNS", "value": "> 100", "unit": "µM"}
    ]},
    {"molecule": "Cc1cc(C)n2c(-c3ccccc3)c(C)cc2n1", "values": [
      {"measurement": "TGI", "setting": "DLD-1 colon", "value": "> 100", "unit": "µM"},
      {"measurement": "TGI", "setting": "DMS 114 small cell lung", "value": "> 100", "unit": "µM"},
      {"measurement": "TGI", "setting": "DMS 273 small cell lung", "value": "> 100", "unit": "µM"},
      {"measurement": "TGI", "setting": "KM20L2 colon", "value": "> 100", "unit": "µM"},
      {"measurement": "TGI", "setting": "M19-MEL melanoma", "value": "> 100", "unit": "µM"},
      {"measurement": "TGI", "setting": "RXF-631 renal", "value": "> 100", "unit": "µM"},
      {"measurement": "TGI", "setting": "SNB-78 CNS", "value": "> 100", "unit": "µM"}
    ]},
    {"molecule": "Cc1ccc2c(c1)C1C(CO2)C(c2ccccc2)=NN1c1ccccc1", "note": "(centres undefined)", "values": [
      {"measurement": "TGI", "setting": "DLD-1 colon", "value": "> 100", "unit": "µM"},
      {"measurement": "TGI", "setting": "DMS 114 small cell lung", "value": "> 100", "unit": "µM"},
      {"measurement": "TGI", "setting": "DMS 273 small cell lung", "value": "> 100", "unit": "µM"},
      {"measurement": "TGI", "setting": "KM20L2 colon", "value": "> 100", "unit": "µM"},
      {"measurement": "TGI", "setting": "LXFL 529 NSCLC", "value": "> 100", "unit": "µM"},
      {"measurement": "TGI", "setting": "M19-MEL melanoma", "value": "> 100", "unit": "µM"},
      {"measurement": "TGI", "setting": "SNB-78 CNS", "value": "> 100", "unit": "µM"}
    ]},
    {"molecule": "Cc1ccc2c(c1)C1(OC(=O)c3ccccc31)c1ccc(F)cc1O2", "note": "(centres undefined)", "values": [
      {"measurement": "TGI", "setting": "DLD-1 colon", "value": "> 100", "unit": "µM"},
      {"measurement": "TGI", "setting": "DMS 114 small cell lung", "value": "> 100", "unit": "µM"},
      {"measurement": "TGI", "setting": "KM20L2 colon", "value": "> 100", "unit": "µM"},
      {"measurement": "TGI", "setting": "LXFL 529 NSCLC", "value": "> 100", "unit": "µM"},
      {"measurement": "TGI", "setting": "M19-MEL melanoma", "value": "> 100", "unit": "µM"},
      {"measurement": "TGI", "setting": "RXF-631 renal", "value": "> 100", "unit": "µM"},
      {"measurement": "TGI", "setting": "XF 498 CNS", "value": "> 100", "unit": "µM"}
    ]}
  ]
}
